Results on one molecule are retold here after patent US20040235857A1, “Crystalline therapeutic agent” (Pfizer Inc, priority 2003, published 2004).

A short description of series [1]: TGA of the higher hydrated form of sildenafil hemi-citrate. As to conditions: temperatures in excess of 150° C.; attributed to degradation of the citrate ion. The class given is physicochemical. The protocol: A TGA trace showing the relative % weight loss versus temperature for the solid form of the present invention is illustrated in FIG. 7. This trace was obtained using a Perkin-Elmer Pyris 1 TGA instrument. The sample, ideally about 5 to about 10 mg, was heated at 20° C./minute from ambient to about 300° C. with a purge gas of nitrogen.

Series [2] in a line: Dynamic vapour sorption (DVS) moisture sorption. Format: physicochemical. The following applies: DVS isotherm, 30° C. The protocol:
The moisture sorption of the hydrated forms of sildenafil hemi-citrate was measured using a Surface Measurement Systems Ltd. Dynamic Vapour Sorption (DVS) Automated Water Sorption Analyser. A sample of the higher hydrate was initially equilibrated at about 45% RH and then analysed from 0 to 90% RH in relative humidity steps of 10% (exposure time of 6 hours per step). A second analysis was carried out from 35 to 65% RH in 5% RH steps to gain more detail in this humidity range (exposure time variable, weight stability of 0.0003%/minute gained for each steps). The temperature was maintained at 30° C. throughout the equilibration and analysis stages.
Sildenafil hemi-citrate is a hygroscopic material. The isotherm is represented in FIG. 5. At humidities greater than 55% RH the higher hydrate is present and from 30 to 40% RH the lower hydrate is present and at 0% RH the dehydrated form is present. Hysteresis occurs between the sorption and desorption isotherms in the 10 to 30 and 40 to 55% RH regions. This is classically seen for hydrates where kinetics associated with hydration and dehydration result in the events occurring at different humidities. There are slow kinetics associated with the rate of sorption (see FIG. 6) at 50% RH (illustrated by an equilibration time of 21 hours).

Turning to `CCCc1nn(C)c2c(=O)[nH]c(-c3cc(S(=O)(=O)N4CCN(C)CC4)ccc3OCC)nc12.CCCc1nn(C)c2c(=O)[nH]c(-c3cc(S(=O)(=O)N4CCN(C)CC4)ccc3OCC)nc12.O=C(O)CC(O)(CC(=O)O)C(=O)O` [dehydrated hydrate], in series [1], the second weight loss entry was “about 12%”. The “relative humidity at which the form is present” value in series [2] turned out to be 0 % RH.
